A short description of the series: RP, Thermo Scientific Hypersil GOLD, 1.9 µm, 40 °C, 0.4 mL/min; A: water + 0.1% formic acid, pH 3; B: acetonitrile + 0.1% formic acid, pH 3; gradient (min/%B) 0/0 1/0 11/100 13/100 14/0 16/0. The following applies: stereoisomer not certain.

Counter-ions that a name gives are not always drawn.

On to `Cc1cc2nc3c(=O)[nH]c(=O)nc-3n(CC(O)C(O)C(O)CO)c2cc1C` (stereo not drawn) [RIBOFLAVIN], for which the LC retention time was 5.05 min.

In the case of `OCC1OC(O)C(O)C1O` (stereo not drawn) [RIBOSE], the LC retention time was 0.66 min.

With `O=C(C=Cc1ccc(O)c(O)c1)OC(Cc1ccc(O)c(O)c1)C(=O)O` (stereo not drawn) [ROSMARINATE], the LC retention time was determined as 6.02 min.

For `Nc1ncnc2c1ncn2C1OC(CSCCC([NH3+])C(=O)[O-])C(O)C1O` (stereo not drawn) [S-ADENOSYLHOMOCYSTEINE], the LC retention time was determined as 0.82 min.

Turning to `C[S+](CCC(N)C(=O)[O-])CC1OC(n2cnc3c(N)ncnc32)C(O)C1O` (stereo not drawn) [S-ADENOSYLMETHIONINE], the LC retention time is 0.59 min.

As to `NC(CSCC(=O)O)C(=O)O` (stereo not drawn) [S-CARBOXYMETHYLCYSTEINE], the LC retention time turned out to be 0.68 min.

For `CCCCCCSCC(NC(=O)CCC(N)C(=O)O)C(=O)NCC(=O)O` (stereo not drawn) [S-HEXYL-GLUTATHIONE], the LC retention time was 6.32 min.

For the compound `NC(=O)c1ccccc1O` [SALICYLAMIDE], the LC retention time worked out at 5.33 min.

As for `O=C(O)c1ccccc1O` [SALICYLATE], the LC retention time was found to be 6.26 min.

For `CC1NCCc2cc(O)c(O)cc21` (stereo not drawn) [SALSOLINOL], the LC retention time was determined as 0.82 min.

On to `CNCC(=O)O` [SARCOSINE], for which the LC retention time was 0.62 min.

Consider `NCC[Se][Se]CCN` [SELENOCYSTAMINE], for which the LC retention time was determined as 0.56 min.

With `C[Se]CCC(N)C(=O)O` (stereo not drawn) [SELENOMETHIONINE], the LC retention time worked out at 0.92 min.

On to `CC=CC=CC(=O)O` [SORBATE], for which the LC retention time came to 6.15 min.

Take `O=C(CO)C(O)C(O)C(O)CO` (stereo not drawn) [SORBOSE]: the LC retention time is 0.64 min.

As for `CCCCCCCCCCCCCCCC(O)C(N)CO` (stereo not drawn) [SPHINGANINE], the LC retention time came to 9.45 min.

As for `OCC1OC(OCC2OC(OCC3OC(OC4(CO)OC(CO)C(O)C4O)C(O)C(O)C3O)C(O)C(O)C2O)C(O)C(O)C1O` (stereo not drawn) [STACHYOSE], the LC retention time came out at 0.67 min.

For the compound `O=C(O)CCCCCCC(=O)O` [SUBERATE], the LC retention time came to 5.58 min.

Take `OCC1OC(OC2(CO)OC(CO)C(O)C2O)C(O)C(O)C1O` (stereo not drawn) [SUCROSE]: the LC retention time came to 0.69 min.

Turning to `O=C(O)CCCCCCCCC(=O)O` [Sebacic acid], the LC retention time was 6.67 min.

As to `Cn1cnc2c1c(=O)[nH]c(=O)n2C` [THEOBROMINE], the LC retention time came to 4.02 min.

Consider `Cn1c(=O)c2[nH]cnc2n(C)c1=O` [THEOPHYLLINE], for which the LC retention time came out at 4.42 min.

Regarding `Cc1ncc(C[n+]2csc(CCOP(=O)(O)O)c2C)c(N)n1` [THIAMINE MONOPHOSPHATE], the LC retention time worked out at 0.63 min.

For `Cc1ncc(C[n+]2csc(CCOP(=O)([O-])OP(=O)(O)O)c2C)c(N)n1` [THIAMINE PYROPHOSPHATE], the LC retention time came to 0.65 min.

For `Cc1ncc(C[n+]2csc(CCO)c2C)c(N)n1` [THIAMINE], the LC retention time stood at 0.61 min.

Turning to `CSc1ncnc2nc[nH]c12` [THIOPURINE S-METHYLETHER], the LC retention time is 4.8 min.

Take `Cc1cn(C2CC(O)C(COP(=O)(O)O)O2)c(=O)[nH]c1=O` (stereo not drawn) [THYMIDINE-MONOPHOSPHATE]: the LC retention time worked out at 0.82 min.

Take `Cc1cn(C2CC(O)C(CO)O2)c(=O)[nH]c1=O` (stereo not drawn) [THYMIDINE]: the LC retention time worked out at 3.68 min.

Turning to `Cc1c[nH]c(=O)[nH]c1=O` [THYMINE], the LC retention time was 1.47 min.

As to `NC(=O)C1CCCN1C(=O)C(Cc1cnc[nH]1)NC(=O)C1CCC(=O)N1` (stereo not drawn) [THYROTROPIN RELEASING HORMONE], the LC retention time was found to be 0.84 min.

On to `NC(Cc1cc(I)c(Oc2cc(I)c(O)c(I)c2)c(I)c1)C(=O)O` (stereo not drawn) [THYROXINE], for which the LC retention time came to 7.42 min.

With `O=C(O)/C=C/c1ccccc1` [TRANS-CINNAMATE], the LC retention time came to 6.96 min.

With `OCC1OC(OC2OC(CO)C(O)C(O)C2O)C(O)C(O)C1O` (stereo not drawn) [TREHALOSE], the LC retention time is 0.65 min.

As to `CCCCCCCCCCCCCCCCCCCCCCC(=O)[O-]` [TRICOSANOATE], the LC retention time stood at 14.6 min.

`C[n+]1cccc(C(=O)[O-])c1` [TRIGONELLINE]: the LC retention time came to 0.69 min.

`NCCc1c[nH]c2ccccc12` [TRYPTAMINE]: the LC retention time was found to be 4.7 min.

For `NCCc1ccc(O)cc1` [TYRAMINE], the LC retention time was determined as 1.24 min.

In the case of `CCCCCCCC=CC(=O)OC(CC(=O)[O-])C[N+](C)(C)C` (stereo not drawn) [Trans -2-decenoyl-l-carnitine], the LC retention time was determined as 7.45 min.

As for `O=C/C=C/c1ccccc1` [Trans-Cinnamaldehyde], the LC retention time came to 7.27 min.

Turning to `O=C(O)CC(CC(=O)O)C(=O)O` [Tricarballylic acid], the LC retention time is 1.36 min.

Regarding `O=C([O-])c1c[nH]c(=O)[nH]c1=O` [URACIL 5-CARBOXYLATE], the LC retention time was 0.87 min.

With `O=c1cc[nH]c(=O)[nH]1` [URACIL], the LC retention time was determined as 0.84 min.

On to `O=c1[nH]c(=O)c2[nH]c(=O)[nH]c2[nH]1` [URATE], for which the LC retention time came to 0.81 min.

In the case of `NC(=O)NCCC(=O)O` [UREIDOPROPIONATE], the LC retention time turned out to be 0.82 min.

Regarding `O=c1ccn(C2OC(COP(=O)(O)O)C(O)C2O)c(=O)[nH]1` (stereo not drawn) [URIDINE MONOPHOSPHATE], the LC retention time is 0.76 min.

On to `O=c1ccn(C2OC(COP(=O)(O)OP(=O)(O)OP(=O)(O)O)C(O)C2O)c(=O)[nH]1` (stereo not drawn) [URIDINE TRIPHOSPHATE], for which the LC retention time is 0.6 min.

With `O=c1ccn(C2OC(CO)C(O)C2O)c(=O)[nH]1` (stereo not drawn) [URIDINE], the LC retention time turned out to be 0.82 min.

As for `O=C(O)C=Cc1cnc[nH]1` [UROCANATE], the LC retention time was found to be 0.82 min.

Consider `CCOC(N)=O` [Urethane], for which the LC retention time was determined as 2.11 min.

Regarding `C=C1CCC(O)CC1=CC=C1CCCC2(C)C1CCC2C(C)C=CC(C)C(C)C` (stereo not drawn) [VITAMIN D2], the LC retention time turned out to be 13.9 min.

For `COc1cc(C(=O)O)ccc1O` [Vanillic acid], the LC retention time amounted to 4.97 min.

For the compound `O=c1[nH]c(=O)c2[nH]cnc2[nH]1` [XANTHINE], the LC retention time amounted to 0.82 min.

As to `O=c1[nH]c(=O)c2ncn(C3OC(COP(=O)(O)O)C(O)C3O)c2[nH]1` (stereo not drawn) [XANTHOSINE-MONOPHOSPHATE], the LC retention time came out at 0.83 min.

Regarding `O=C(O)c1cc(=O)c2cccc(O)c2[nH]1` [XANTHURENATE], the LC retention time was 4.45 min.

In the case of `OC1COC(O)C(O)C1O` (stereo not drawn) [XYLOSE], the LC retention time worked out at 0.64 min.

`CCC(N)C(=O)O` [alpha-aminobutyric acid (L-2-aminobutyric acid)]: the LC retention time was 0.69 min.

Take `COC1=C(OC)C(=O)C(CC=C(C)C)=C(C)C1=O` [coenzyme Q1]: the LC retention time came to 9.21 min.

Consider `COC1=C(OC)C(=O)C(CC=C(C)CCC=C(C)C)=C(C)C1=O` [coenzyme Q2], for which the LC retention time turned out to be 11 min.

On to `O=c1c(-c2ccc(O)cc2)coc2cc(OC3OC(CO)C(O)C(O)C3O)ccc12` (stereo not drawn) [daidzin], for which the LC retention time amounted to 5.24 min.

`Cc1cc(O)cc2c1OC(C)(CCC(=O)O)CC2` (stereo not drawn) [delta CEHC]: the LC retention time stood at 6.88 min.

`CC(CCC(=O)O)C1CCC2C3CCC4CC(O)CCC4(C)C3CC(O)C12C` (stereo not drawn) [deoxycholic acid]: the LC retention time came out at 9.28 min.

With `O=C(O)CCc1ccccc1` [hydrocinnamic acid], the LC retention time is 6.87 min.

For `COC(=O)CCCCC(=O)O` [mono-Methyl adipate], the LC retention time was found to be 5.42 min.

For `COC(=O)CCC(=O)O` [mono-Methyl hydrogen succinate], the LC retention time was determined as 3.97 min.

With `CCCCCCCCCCCCCCCCCCC(=O)O` [nonadecanoic acid], the LC retention time was 0.68 min.

Regarding `O=C(O)CNC(=O)c1ccccc1O` [o-Hydroxyhippuric acid], the LC retention time amounted to 5.5 min.

Consider `CC(=O)OC(CC(=O)[O-])C[N+](C)(C)C` (stereo not drawn) [o-acetyl-l-carnitine hydrochloride], for which the LC retention time came to 0.81 min.

`CC(=O)C1CCC2C3CC=C4CC(OS(=O)(=O)O)CCC4(C)C3CCC12C` (stereo not drawn) [pregnenolone sulfate]: the LC retention time is 8.05 min.

As to `CC(=O)C(=O)O` [pyruvic acid], the LC retention time was 0.78 min.

Turning to `O=c1c(O)c(-c2ccc(O)c(O)c2)oc2cc(O)cc(O)c12` [quercetine dihydrate], the LC retention time turned out to be 6.55 min.

Regarding `CCN(CC)CCCC(C)Nc1c2ccc(Cl)cc2nc2ccc(OC)cc12` (stereo not drawn) [quinacrine], the LC retention time is 5.61 min.

In the case of `Oc1ccc(C=Cc2cc(O)cc(O)c2)cc1` [resveratrol], the LC retention time is 6.28 min.

For the compound `CC1OC(OCC2OC(Oc3c(-c4ccc(O)c(O)c4)oc4cc(O)cc(O)c4c3=O)C(O)C(O)C2O)C(O)C(O)C1O` (stereo not drawn) [rutin hydrate], the LC retention time is 5.42 min.

As for `CC(CCC(=O)NCCS(=O)(=O)O)C1CCC2C3C(O)CC4CC(O)CCC4(C)C3CC(O)C12C` (stereo not drawn) [taurocholic acid  sodium salt hydrate], the LC retention time amounted to 7.13 min.

Take `O=C(O)/C=C/c1cccc(O)c1` [trans-3-Hydroxycinnamic acid (m-Coumaric acid)]: the LC retention time turned out to be 5.82 min.

Take `O=C(O)/C=C/c1c[nH]c2ccccc12` [trans-3-indoleacrylic acid]: the LC retention time was 6.57 min.

`C[N+](C)(C)[O-]` [trimethylamine N-oxide]: the LC retention time stood at 0.64 min.

`O=C(O)CCCCCCCCCC(=O)O` [undecanedioic acid]: the LC retention time came to 7.15 min.

The record behind these values is the RepoRT retention time repository.
